Like-named read-outs stand apart in the source and are kept apart here. Positions of bridges follow the written chain, without caps; N, C: chain ends. Non-standard residues stand in square brackets, D forms with d. Residues, ends and D or L forms follow the SMILES beside them. Phe(4-I) = N[C@@H](Cc1ccc(I)cc1)C(=O)O; 2Pal = N[C@@H](Cc1ccccn1)C(=O)O
What was measured:
Experiment in all cases: cell-based
hNav1.3 = hNav1.3 (Homo sapiens, UniProt Q9NY46); conditions: IonWorks Quattro, read-out: IWQ Use Nav1.3
hNav1.5 = hNav1.5 (Homo sapiens, UniProt Q14524); conditions: IonWorks Quattro, read-out: IWQ Use Nav1.5
Sequence of hNav1.5 (Q14524 whole entry, looked up): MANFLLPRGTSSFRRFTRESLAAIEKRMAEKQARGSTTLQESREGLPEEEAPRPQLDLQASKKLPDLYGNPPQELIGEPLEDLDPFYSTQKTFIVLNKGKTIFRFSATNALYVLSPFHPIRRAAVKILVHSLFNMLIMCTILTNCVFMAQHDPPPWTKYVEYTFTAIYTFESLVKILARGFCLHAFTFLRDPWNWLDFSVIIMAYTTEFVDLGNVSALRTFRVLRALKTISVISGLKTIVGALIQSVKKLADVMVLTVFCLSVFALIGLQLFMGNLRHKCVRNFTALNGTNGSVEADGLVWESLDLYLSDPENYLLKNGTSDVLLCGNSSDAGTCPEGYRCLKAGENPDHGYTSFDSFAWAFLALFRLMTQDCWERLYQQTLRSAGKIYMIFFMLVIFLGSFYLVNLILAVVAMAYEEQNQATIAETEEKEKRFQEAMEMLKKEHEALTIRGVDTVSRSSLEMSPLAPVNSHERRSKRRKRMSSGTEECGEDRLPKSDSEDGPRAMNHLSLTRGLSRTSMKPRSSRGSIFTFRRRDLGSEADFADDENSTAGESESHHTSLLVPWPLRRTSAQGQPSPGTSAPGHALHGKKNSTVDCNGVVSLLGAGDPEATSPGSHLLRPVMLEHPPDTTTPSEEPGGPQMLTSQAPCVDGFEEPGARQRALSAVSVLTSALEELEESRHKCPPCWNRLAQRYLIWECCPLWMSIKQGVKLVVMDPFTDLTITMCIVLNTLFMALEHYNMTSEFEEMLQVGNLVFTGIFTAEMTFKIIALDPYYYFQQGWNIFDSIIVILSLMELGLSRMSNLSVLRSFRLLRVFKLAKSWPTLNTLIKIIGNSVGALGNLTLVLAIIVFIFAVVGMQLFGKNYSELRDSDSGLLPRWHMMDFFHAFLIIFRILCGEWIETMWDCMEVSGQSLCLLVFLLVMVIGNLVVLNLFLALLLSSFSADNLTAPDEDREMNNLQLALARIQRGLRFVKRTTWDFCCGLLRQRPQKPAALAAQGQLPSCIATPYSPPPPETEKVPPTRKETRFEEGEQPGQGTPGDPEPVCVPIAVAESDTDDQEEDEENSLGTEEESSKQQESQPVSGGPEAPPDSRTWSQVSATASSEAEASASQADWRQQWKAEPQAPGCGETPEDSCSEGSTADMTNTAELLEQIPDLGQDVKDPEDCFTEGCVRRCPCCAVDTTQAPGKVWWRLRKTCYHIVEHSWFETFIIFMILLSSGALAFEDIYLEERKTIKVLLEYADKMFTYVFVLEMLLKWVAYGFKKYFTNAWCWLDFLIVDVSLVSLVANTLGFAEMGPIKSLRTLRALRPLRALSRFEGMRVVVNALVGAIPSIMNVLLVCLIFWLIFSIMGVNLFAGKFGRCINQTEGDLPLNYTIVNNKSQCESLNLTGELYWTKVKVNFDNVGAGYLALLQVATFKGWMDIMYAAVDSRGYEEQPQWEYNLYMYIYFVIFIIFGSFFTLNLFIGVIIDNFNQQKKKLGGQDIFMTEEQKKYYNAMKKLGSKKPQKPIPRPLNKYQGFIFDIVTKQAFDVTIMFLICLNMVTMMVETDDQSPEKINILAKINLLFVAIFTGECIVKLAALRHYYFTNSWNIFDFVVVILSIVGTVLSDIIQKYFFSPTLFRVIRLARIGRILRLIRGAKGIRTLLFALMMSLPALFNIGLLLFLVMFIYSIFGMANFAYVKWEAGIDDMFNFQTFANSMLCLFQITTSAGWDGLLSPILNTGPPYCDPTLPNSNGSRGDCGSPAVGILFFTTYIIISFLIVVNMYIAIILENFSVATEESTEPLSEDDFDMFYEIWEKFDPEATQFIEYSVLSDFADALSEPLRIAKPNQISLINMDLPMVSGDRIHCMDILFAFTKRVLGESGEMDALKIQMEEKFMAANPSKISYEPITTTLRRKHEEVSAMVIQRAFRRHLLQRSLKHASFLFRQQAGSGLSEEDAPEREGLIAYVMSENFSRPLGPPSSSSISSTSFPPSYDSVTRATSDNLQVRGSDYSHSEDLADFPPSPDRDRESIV

hNav1.7 = hNav1.7 (Homo sapiens, UniProt Q15858); type: cell-based; conditions: IonWorks Quattro
Sequence of hNav1.7 (Q15858 whole entry, looked up): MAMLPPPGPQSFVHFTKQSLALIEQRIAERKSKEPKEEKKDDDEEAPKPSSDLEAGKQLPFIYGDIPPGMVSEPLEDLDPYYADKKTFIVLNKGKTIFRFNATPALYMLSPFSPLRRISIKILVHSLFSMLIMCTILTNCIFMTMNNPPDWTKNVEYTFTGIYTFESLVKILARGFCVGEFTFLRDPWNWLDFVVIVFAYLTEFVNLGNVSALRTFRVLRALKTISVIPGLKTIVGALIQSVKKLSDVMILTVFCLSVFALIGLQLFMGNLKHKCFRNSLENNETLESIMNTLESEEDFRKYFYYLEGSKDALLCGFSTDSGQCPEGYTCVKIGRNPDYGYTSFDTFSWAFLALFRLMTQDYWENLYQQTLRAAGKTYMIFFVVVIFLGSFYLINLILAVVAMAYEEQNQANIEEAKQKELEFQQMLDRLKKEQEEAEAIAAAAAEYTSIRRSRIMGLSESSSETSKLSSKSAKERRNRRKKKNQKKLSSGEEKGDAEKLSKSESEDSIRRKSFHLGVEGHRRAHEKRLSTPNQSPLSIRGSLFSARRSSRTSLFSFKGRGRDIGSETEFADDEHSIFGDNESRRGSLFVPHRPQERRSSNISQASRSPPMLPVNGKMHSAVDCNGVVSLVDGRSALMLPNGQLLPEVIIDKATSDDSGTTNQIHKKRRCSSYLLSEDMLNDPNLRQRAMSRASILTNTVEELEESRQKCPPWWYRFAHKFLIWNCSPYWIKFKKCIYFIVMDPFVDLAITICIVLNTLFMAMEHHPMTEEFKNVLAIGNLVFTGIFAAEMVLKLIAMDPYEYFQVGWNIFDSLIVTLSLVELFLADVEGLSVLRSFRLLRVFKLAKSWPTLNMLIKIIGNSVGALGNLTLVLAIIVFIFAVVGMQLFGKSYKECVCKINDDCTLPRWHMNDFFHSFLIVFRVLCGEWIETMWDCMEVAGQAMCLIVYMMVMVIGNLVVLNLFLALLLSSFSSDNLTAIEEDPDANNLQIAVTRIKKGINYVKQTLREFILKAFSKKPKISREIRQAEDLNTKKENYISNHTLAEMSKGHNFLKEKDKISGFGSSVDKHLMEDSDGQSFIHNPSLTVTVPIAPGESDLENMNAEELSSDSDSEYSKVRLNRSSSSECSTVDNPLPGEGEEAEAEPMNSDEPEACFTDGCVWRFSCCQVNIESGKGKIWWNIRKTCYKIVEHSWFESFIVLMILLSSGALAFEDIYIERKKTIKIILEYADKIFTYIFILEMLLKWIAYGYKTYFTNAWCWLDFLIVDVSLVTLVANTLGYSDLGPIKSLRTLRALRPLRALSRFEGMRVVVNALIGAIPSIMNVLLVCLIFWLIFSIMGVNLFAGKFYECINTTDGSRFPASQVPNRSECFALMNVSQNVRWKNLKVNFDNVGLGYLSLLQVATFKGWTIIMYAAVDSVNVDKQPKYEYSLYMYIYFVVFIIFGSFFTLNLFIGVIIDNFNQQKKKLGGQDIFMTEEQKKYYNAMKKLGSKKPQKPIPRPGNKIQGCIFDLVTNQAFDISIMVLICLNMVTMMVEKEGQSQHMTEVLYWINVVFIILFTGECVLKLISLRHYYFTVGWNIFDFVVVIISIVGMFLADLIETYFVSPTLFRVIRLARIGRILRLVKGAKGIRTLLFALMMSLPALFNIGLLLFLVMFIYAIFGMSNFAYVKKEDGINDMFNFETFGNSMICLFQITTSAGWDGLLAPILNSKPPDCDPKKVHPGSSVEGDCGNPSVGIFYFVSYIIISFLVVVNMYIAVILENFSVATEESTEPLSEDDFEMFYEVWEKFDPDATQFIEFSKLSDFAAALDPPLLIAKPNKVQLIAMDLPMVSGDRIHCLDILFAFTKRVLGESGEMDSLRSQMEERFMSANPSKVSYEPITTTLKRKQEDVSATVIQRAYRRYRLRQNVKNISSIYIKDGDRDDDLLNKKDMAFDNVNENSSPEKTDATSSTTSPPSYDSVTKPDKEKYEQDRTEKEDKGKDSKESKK

[1] = use-dependent protocol, hNav1.3
[2] = use-dependent protocol, hNav1.5
[3] = use-dependent protocol, hNav1.7, read-out: IWQ Use Nav1.7
[4] = use-dependent block, hNav1.7, read-out: IWQ Use Nav1.7

SMILES	IC50 (hNav1.3; use-dependent block, hNav1.3) [nM]	IC50 (hNav1.5; use-dependent block, hNav1.5) [nM]	IC50 (hNav1.7; [4]) [nM]	further results
CC[C@H](C)[C@@H]1NC(=O)[C@@H]2CSSC[C@@H]3NC(=O)[C@H](C(C)C)NC(=O)[C@H](CC(C)C)NC(=O)[C@H](CC(N)=O)NC(=O)[C@@H]4CCCN4C(=O)[C@H](CCCNC(=N)N)NC(=O)[C@H](CSSC[C@H](NC(=O)[C@@H](N)CC(=O)O)C(=O)N[C@@H](CC(C)C)C(=O)NCC(=O)N[C@@H](Cc4ccccc4)C(=O)N[C@@H](CCSC)C(=O)N[C@@H](CCCNC(=N)N)C(=O)N[C@@H](CCCCN)C(=O)N2)NC(=O)[C@H](CSSC[C@@H](C(=O)N[C@@H](CCCCN)C(=O)N[C@@H](Cc2ccc(O)cc2)C(=O)N[C@H](C(=O)N[C@@H](Cc2ccccc2)C(N)=O)C(C)C)NC(=O)[C@H](Cc2c[nH]c4ccccc24)NC(=O)[C@H](CCCCN)NC(=O)[C@H](Cc2ccccn2)NC(=O)[C@H]([C@@H](C)O)NC(=O)[C@H](CCCNC(=N)N)NC(=O)[C@H](CO)NC3=O)NC(=O)[C@H](CCCCN)NC(=O)[C@H](CC(=O)O)NC(=O)[C@H](CC(N)=O)NC(=O)[C@H](CC(=O)O)NC(=O)[C@@H]2CCCN2C1=O [compound 352] (H-DCLGFMRKCIPDNDKCCRPNLVCSRT[2Pal]KWCKYVF-NH2; disulfide 2-17, 9-23, 16-30)				IC50 (hNav1.3; Table 23, use, […]): 50 nM; IC50 (hNav1.5; Table 23, use, […]): 7820 nM; IC50 (hNav1.7; Table 23, use, […], read-out: IWQ Use Nav1.7): 90 nM
CC[C@H](C)[C@@H]1NC(=O)[C@@H]2CSSC[C@@H]3NC(=O)[C@H](C(C)C)NC(=O)[C@H](CC(C)C)NC(=O)[C@H](CC(N)=O)NC(=O)[C@@H]4CCCN4C(=O)[C@H](CCCNC(=N)N)NC(=O)[C@H](CSSC[C@H](NC(=O)[C@@H](N)CC(=O)O)C(=O)N[C@@H](CC(C)C)C(=O)NCC(=O)N[C@@H](Cc4ccccc4Cl)C(=O)N[C@@H](CC(C)C)C(=O)N[C@@H](CCCNC(=N)N)C(=O)N[C@@H](CCCCN)C(=O)N2)NC(=O)[C@H](CSSC[C@@H](C(=O)N[C@@H](CCCCN)C(=O)N[C@@H](Cc2ccc(O)cc2)C(=O)N[C@H](C(=O)N[C@@H](Cc2ccccc2)C(N)=O)C(C)C)NC(=O)[C@H](Cc2c[nH]c4ccccc24)NC(=O)[C@H](CCCCN)NC(=O)[C@H](Cc2c[nH]cn2)NC(=O)[C@H]([C@@H](C)O)NC(=O)[C@H](CCCNC(=N)N)NC(=O)[C@H](CO)NC3=O)NC(=O)[C@H](CCCCN)NC(=O)[C@H](CC(=O)O)NC(=O)[C@H](CC(N)=O)NC(=O)[C@H](CC(=O)O)NC(=O)[C@@H]2CCCN2C1=O [compound 675]				IC50 (hNav1.3; [1]): 72 nM; IC50 (hNav1.5; [2]): > 5000 nM; IC50 (hNav1.7; [3]): 66 nM
CC[C@H](C)[C@@H]1NC(=O)[C@@H]2CSSC[C@@H]3NC(=O)[C@H](C(C)C)NC(=O)[C@H](CC(C)C)NC(=O)[C@H](CC(N)=O)NC(=O)[C@@H]4CCCN4C(=O)[C@H](CCCNC(=N)N)NC(=O)[C@H](CSSC[C@H](NC(=O)[C@@H](N)CC(=O)O)C(=O)N[C@@H](CC(C)C)C(=O)NCC(=O)N[C@@H](C)C(=O)N[C@@H](CCSC)C(=O)N[C@@H](CCCNC(=N)N)C(=O)N[C@@H](CCCCN)C(=O)N2)NC(=O)[C@H](CSSC[C@@H](C(=O)N[C@@H](CCCCN)C(=O)N[C@@H](Cc2ccc(O)cc2)C(=O)N[C@H](C(=O)N[C@@H](Cc2ccccc2)C(N)=O)C(C)C)NC(=O)[C@H](Cc2c[nH]c4ccccc24)NC(=O)[C@H](CCCCN)NC(=O)[C@H](Cc2c[nH]cn2)NC(=O)[C@H]([C@@H](C)O)NC(=O)[C@H](CCCNC(=N)N)NC(=O)[C@H](CO)NC3=O)NC(=O)[C@H](CCCCN)NC(=O)[C@H](CC(=O)O)NC(=O)[C@H](CC(N)=O)NC(=O)[C@H](Cc2c[nH]c3ccccc23)NC(=O)[C@@H]2CCCN2C1=O [compound 423] (H-DCLGAMRKCIPWNDKCCRPNLVCSRTHKWCKYVF-NH2; disulfide 2-17, 9-23, 16-30)	1090	> 5000	430	
CC[C@H](C)[C@@H]1NC(=O)[C@@H]2CSSC[C@@H]3NC(=O)[C@H](C(C)C)NC(=O)[C@H](CC(C)C)NC(=O)[C@H](CC(N)=O)NC(=O)[C@@H]4CCCN4C(=O)[C@H](CCCNC(=N)N)NC(=O)[C@H](CSSC[C@H](NC(=O)[C@@H](N)CC(=O)O)C(=O)N[C@@H](CC(C)C)C(=O)NCC(=O)N[C@@H](C)C(=O)N[C@@H](Cc4ccccc4)C(=O)N[C@@H](CCCNC(=N)N)C(=O)N[C@@H](CCCCN)C(=O)N2)NC(=O)[C@H](CSSC[C@@H](C(=O)N[C@@H](CCCCN)C(=O)N[C@@H](Cc2ccc(O)cc2)C(=O)N[C@H](C(=O)N[C@@H](Cc2ccccc2)C(N)=O)C(C)C)NC(=O)[C@H](Cc2c[nH]c4ccccc24)NC(=O)[C@H](CCCCN)NC(=O)[C@H](Cc2c[nH]cn2)NC(=O)[C@H]([C@@H](C)O)NC(=O)[C@H](C)NC(=O)[C@H](CO)NC3=O)NC(=O)[C@H](CCCCN)NC(=O)[C@H](CC(=O)O)NC(=O)[C@H](CC(N)=O)NC(=O)[C@H](CC(=O)O)NC(=O)[C@@H]2CCCN2C1=O [compound 732] (H-DCLGAFRKCIPDNDKCCRPNLVCSATHKWCKYVF-NH2; disulfide 2-17, 9-23, 16-30)	600	> 50000	290	
CC[C@H](C)[C@@H]1NC(=O)[C@@H]2CSSC[C@@H]3NC(=O)[C@H](C(C)C)NC(=O)[C@H](CC(C)C)NC(=O)[C@H](CC(N)=O)NC(=O)[C@@H]4CCCN4C(=O)[C@H](CCCNC(=N)N)NC(=O)[C@H](CSSC[C@H](NC(=O)[C@@H](N)CC(=O)O)C(=O)N[C@@H](CC(C)C)C(=O)NCC(=O)N[C@@H](Cc4ccc(I)cc4)C(=O)N[C@@H](Cc4ccccc4)C(=O)N[C@@H](CCCNC(=N)N)C(=O)N[C@@H](CCCCN)C(=O)N2)NC(=O)[C@H](CSSC[C@@H](C(=O)N[C@@H](CCCCN)C(=O)N[C@@H](Cc2ccc(O)cc2)C(=O)N[C@H](C(=O)N[C@@H](Cc2ccccc2)C(N)=O)C(C)C)NC(=O)[C@H](Cc2c[nH]c4ccccc24)NC(=O)[C@H](CCCCN)NC(=O)[C@H](Cc2c[nH]cn2)NC(=O)[C@H]([C@@H](C)O)NC(=O)[C@H](CCCNC(=N)N)NC(=O)[C@H](CO)NC3=O)NC(=O)[C@H](CCCCN)NC(=O)[C@H](CC(=O)O)NC(=O)[C@H](CC(N)=O)NC(=O)[C@H](CC(=O)O)NC(=O)[C@@H]2CCCN2C1=O [compound 622] (H-DCLG[Phe(4-I)]FRKCIPDNDKCCRPNLVCSRTHKWCKYVF-NH2; disulfide 2-17, 9-23, 16-30)				IC50 (hNav1.3; [1]): 21000 nM; IC50 (hNav1.5; [2]): 12900 nM; IC50 (hNav1.7; [3]): 12300 nM
CC[C@H](C)[C@@H]1NC(=O)[C@@H]2CSSC[C@@H]3NC(=O)[C@H](C(C)C)NC(=O)[C@H](CC(C)C)NC(=O)[C@H](CC(N)=O)NC(=O)[C@@H]4CCCN4C(=O)[C@H](CCCNC(=N)N)NC(=O)[C@H](CSSC[C@H](NC(=O)[C@@H](N)CC(=O)O)C(=O)N[C@@H](CC(C)C)C(=O)NCC(=O)N[C@@H](Cc4ccccc4)C(=O)N[C@@H](CCSC)C(=O)N[C@@H](CCCNC(N)=O)C(=O)N[C@@H](CCCCN)C(=O)N2)NC(=O)[C@H](CSSC[C@@H](C(=O)N[C@@H](CCCCN)C(=O)N[C@@H](Cc2ccc(O)cc2)C(=O)N[C@H](C(=O)N[C@@H](Cc2ccccc2)C(N)=O)C(C)C)NC(=O)[C@H](Cc2c[nH]c4ccccc24)NC(=O)[C@H](CCCCN)NC(=O)[C@H](Cc2c[nH]cn2)NC(=O)[C@H]([C@@H](C)O)NC(=O)[C@H](CCCNC(=N)N)NC(=O)[C@H](CO)NC3=O)NC(=O)[C@H](CCCCN)NC(=O)[C@H](CC(=O)O)NC(=O)[C@H](CC(N)=O)NC(=O)[C@H](CC(=O)O)NC(=O)[C@@H]2CCCN2C1=O [[Cit7]GpTx-1(1-34)]	560	14400	630	
CC[C@H](C)[C@@H]1NC(=O)[C@@H]2CSSC[C@@H]3NC(=O)[C@H](C(C)C)NC(=O)[C@H](CC(C)C)NC(=O)[C@H](CC(N)=O)NC(=O)[C@@H]4CCCN4C(=O)[C@H](CCCNC(=N)N)NC(=O)[C@H](CSSC[C@H](NC(=O)[C@@H](N)CC(=O)O)C(=O)N[C@@H](CC(C)C)C(=O)NCC(=O)N[C@@H](Cc4ccccc4)C(=O)N[C@@H](CCSC)C(=O)N[C@@H](CCCNC(=N)N)C(=O)N[C@@H](CCCCN)C(=O)N2)NC(=O)[C@H](CSSC[C@@H](C(=O)N[C@@H](CCCCN)C(=O)N[C@@H](Cc2ccc(O)cc2)C(=O)N[C@H](C(=O)N[C@@H](Cc2ccccc2)C(=O)N[C@@H](CCCCN)C(N)=O)C(C)C)NC(=O)[C@H](Cc2c[nH]c4ccccc24)NC(=O)[C@H](CCCCN)NC(=O)[C@H](Cc2c[nH]cn2)NC(=O)[C@H]([C@@H](C)O)NC(=O)[C@H](CCCNC(=N)N)NC(=O)[C@H](CO)NC3=O)NC(=O)[C@H](CCCCN)NC(=O)[C@H](CC(=O)O)NC(=O)[C@H](CC(N)=O)NC(=O)[C@H](CC(=O)O)NC(=O)[C@@H]2CCCN2C1=O [compound 60]				IC50 (hNav1.3; use-dependent, […]): 210 nM; IC50 (hNav1.5; use-dependent, […]): 12500 nM; IC50 (hNav1.7; use-dependent, […], read-out: IWQ Use Nav1.7 (μm)): 590 nM
CC[C@H](C)[C@@H]1NC(=O)[C@@H]2CSSC[C@@H]3NC(=O)[C@H](C(C)C)NC(=O)[C@H](CC(C)C)NC(=O)[C@H](CC(N)=O)NC(=O)[C@@H]4CCCN4C(=O)[C@H](CCCNC(=N)N)NC(=O)[C@H](CSSC[C@H](NC(=O)[C@@H](N)CC(=O)O)C(=O)N[C@@H](CC(C)C)C(=O)NCC(=O)NCC(=O)N[C@@H](C(C)C)C(=O)N[C@@H](CCCNC(=N)N)C(=O)N[C@@H](CCCCN)C(=O)N2)NC(=O)[C@H](CSSC[C@@H](C(=O)N[C@@H](CCCCN)C(=O)N[C@@H](Cc2ccc(O)cc2)C(=O)N[C@H](C(=O)N[C@@H](Cc2ccccc2)C(N)=O)C(C)C)NC(=O)[C@H](Cc2c[nH]c4ccccc24)NC(=O)[C@H](CCCCN)NC(=O)[C@H](Cc2c[nH]cn2)NC(=O)[C@H]([C@@H](C)O)NC(=O)[C@H](CCCNC(=N)N)NC(=O)[C@H](CO)NC3=O)NC(=O)[C@H](CCCCN)NC(=O)[C@H](CC(=O)O)NC(=O)[C@H](CC(N)=O)NC(=O)[C@H](CC(=O)O)NC(=O)[C@@H]2CCCN2C1=O [compound 751] (H-DCLGGVRKCIPDNDKCCRPNLVCSRTHKWCKYVF-NH2; disulfide 2-17, 9-23, 16-30)	> 5000	25500	> 5000	
